{"source": "patent US20230242474A1", "about": "“LIPID COMPOUND AND THE COMPOSITION THEREOF” (GUANGZHOU RIBOBIO CO., LTD, priority 2020, published 2023)", "key": {"[1]": {"tested_on": "T lymphocytes secreting INFγ", "test": "ELISPOT count of T lymphocytes secreting INFγ after immunization with LNP-encapsulated SARS-CoV-2 S protein mRNA", "format": "in vivo, BALB/c mice", "settings": "S protein (1 μg) stimulation, intramuscular Day 0 and Day 14, spleens after 7 days"}, "[2]": {"tested_on": "S protein specific IgG antibody", "format": "in vivo, BALB/c mice", "settings": "14 days after the second immunization, LNP with S protein mRNA, FIG. 5"}, "[3]": {"tested_on": "Wistar rats", "test": "Safety evaluation of LNP: acute toxicity test in rat", "format": "in vivo", "set-up": "key to Histopathological result, Muscle tissue / Histopathological result, Heart / Histopathological result, Liver / Histopathological result, Kidney / Histopathological result, Spleen / Histopathological result, Thymus / Histopathological result, Lymph nodes / Histopathological result, Pancreas: ″—″ means no abnormality", "description": "Wistar rats including 4 males and 4 females, with a weight difference of no more than 10%, were selected and randomly divided into two groups: solvent control group and tested substance group. The concentration used in the measurement was 2 mg/mL. Each animal was administered 3 times a day with the volume of each injection as 250 μl. The administration interval was 4 hours. Alternate administration to the left and right legs were performed. The total dosage level was 1.50 mg per rat, which was equivalent to 1200 times the maximum unit weight dosage level for human (assuming the maximum dosage level for human is 0.25 mg). Clinical observation was recorded as follows. Within 24 hours after administration, clinical observation was carried out every hour. Within 24-72 hours after administration, clinical observation was carried out once every 6 hours. Within 4-14 days after administration, clinical observation was carried out once a day. The symptoms of toxicity, the time when the symptoms appeared and disappeared, and the time of death (if occurred) were recorded. Body weight was recorded once a day after administration, and food intake was recorded every 2 days after administration. 14 days after the administration, all the remaining animals were weighed, then euthanized, and major organs were obtained by anatomy. Heart, liver, spleen, lung, kidney, thymus, lymph node, were weighted and relative organ weight (the organ weight/the subject weight×100%; also known as organ coefficient) was calculated. After anatomy, the heart, liver, spleen, lung, kidney, intestine, thymus, lymph node, muscle tissue at the injection site and other organs with pathological changes observed were stored in a fixation solution, and the pathology of each organ was examined by H&E staining. Lesion severity scores were given according to the table below.\nSpecifically, the body weight of male rats in the solvent control group continued to increase. […] The food intake per rat in the solvent control group within 24 hours was stable, within a range of 18-35 grams."}, "[4]": {"format": "physicochemical"}, "[5]": {"tested_on": "BALB/c mice", "test": "Transfection efficiency: in vivo bioluminescence of luciferase mRNA encapsulated by different LNP", "settings": "intramuscular injection, 1 μg/ mice", "description": "All animals were kept in adaptive feeding for more than 7 days before experiments, free to uptake food and drink water during experimental period, illumination 12/12 h alternating light and dark, room temperature was 20-26° C., humidity was 40-70%.\nExperimental method: female BALB/c mice, encapsulated luciferase mRNA with different LNP by four different administrations which included subcutaneous injection (under the armpit), tail vein injection, intraperitoneal injection, intramuscular injection (the tibialis anterior muscle of mouse hind leg); 3, 6, 24, 48 h after administration, applied in vivo fluorescence imaging system (brand: Bruker, model: XTREME) for bioluminescence detection, the specific steps were as follows: substrate preparation: took appropriate amount of substrate Luciferin (brand: Promega) and added saline to make a 10 mg/ml solution, avoided light, injected 100 μl solution into each mouse intraperitoneally. […] Put the anesthetized mouse into machine, set the bioluminescence setting and took the photos, captured the photograph and then adjusted the upper and lower values of photograph, then collected data on the concentrated distribution of fluorescence (e.g., fluorescence intensity, average photons number, and total photons number) and processed data. Statistical analysis: the in vivo imaging outcome were shown in the fluorescence intensity or average of total photons number of different animal in the same tested group, which were used to judge whether the fluorescence intensity or total photon number of luciferase mRNA encapsulated by different LNP were high or low.\nThe fluorescence intensity and total photons number reflects the transfection efficiency of LNP, the value is higher, referring to the efficiency of delivering encapsulated substance into cell by LNP is higher."}, "[6]": {"settings": "H&E, day 14, 1.50 mg per rat, animals 1001 and 1101"}, "[7]": {"settings": "empty LNP, 1.50 mg per rat i.m., day 14, average of male, female rat"}, "[8]": {"settings": "empty LNP, 1.50 mg per rat, day 14"}, "[9]": {"settings": "LNP empty vector used in the rat safety study, Table 5"}, "[10]": {"settings": "LNP with SARS-CoV-2 S protein mRNA, Table 9"}, "[11]": {"settings": "lipid nanoparticle of the ionizable lipid with mRNA, Table 1"}}, "note": "“And” between values parts separate entries of the source, which are not always exact repeats. Equal entries are not always repeated. Where two headings read alike, the source gives them in different places.", "data": [{"smiles": "CCCCCCOCC(COCCCCCC)OC(=O)CCCCCCCN(CCO)CCCCCCCC(=O)OC(COCCCCCC)COCCCCCC", "note": "[A18]", "values": [{"measurement": "Elispot counted T lymphocytes secreting INFγ", "setting": "[1]; dose 5 μg", "value": "161 and 153"}, {"measurement": "Elispot counted T lymphocytes secreting INFγ", "setting": "[1]; dose 20 μg", "value": "241 and 251"}, {"measurement": "S protein specific IgG antibody titer", "setting": "[2]", "value": "higher titers of IgG antibodies"}, {"measurement": "Overall pathological changes after the 1200 times higher dosage level of the LNP injection", "setting": "[3]; 1.50 mg per rat, 1200 times the maximum unit weight dosage level for human", "value": "only slight pathological changes in the lungs and legs"}, {"measurement": "Histopathological result, Heart", "setting": "[3]; [6]", "value": "—"}, {"measurement": "Histopathological result, Kidney", "setting": "[3]; [6]", "value": "—"}, {"measurement": "Histopathological result, Liver", "setting": "[3]; [6]", "value": "—"}, {"measurement": "Histopathological result, Lymph nodes", "setting": "[3]; [6]", "value": "—"}, {"measurement": "Histopathological result, Pancreas", "setting": "[3]; [6]", "value": "—"}, {"measurement": "Histopathological result, Spleen", "setting": "[3]; [6]", "value": "—"}, {"measurement": "Histopathological result, Thymus", "setting": "[3]; [6]", "value": "—"}, {"measurement": "Histopathological result, Lung", "setting": "[3]; H&E, day 14, 1.50 mg per rat, animals 1001 and 1101, cell wraps over three grid rows: Partial stromal cell hyperplasia", "value": "Partial"}, {"measurement": "Histopathological result, Muscle tissue", "setting": "[3]; H&E, day 14, 1.50 mg per rat, injection site, animals 1001 and 1101", "value": "—"}, {"measurement": "Body weight change of rats", "setting": "[3]; empty LNP, 1.50 mg per rat i.m., 14 days, FIGS. 1-2", "value": "dropped initially, then recovered to the pre-administration level on Day 4-Day 6, and continued to increase subsequently"}, {"measurement": "Food intake change of rats", "setting": "[3]; empty LNP, 1.50 mg per rat i.m., 14 days, FIGS. 3-4", "value": "decreased initially, and returned to normal levels on Day 4-Day 7"}, {"measurement": "Relative organ weight, Brain", "setting": "[3]; [7]", "value": 0.687}, {"measurement": "Relative organ weight, Kidney left", "setting": "[3]; [7]", "value": 0.351}, {"measurement": "Relative organ weight, Kidney right", "setting": "[3]; [7]", "value": 0.356}, {"measurement": "Relative organ weight, Liver", "setting": "[3]; [7]", "value": 3.773}, {"measurement": "Relative organ weight, Lung", "setting": "[3]; [7]", "value": 0.413}, {"measurement": "Relative organ weight, Lymph nodes", "setting": "[3]; [7]", "value": 0.006}, {"measurement": "Relative organ weight, Spleen", "setting": "[3]; [7]", "value": 0.250}, {"measurement": "Relative organ weight, Thymus", "setting": "[3]; [7]", "value": 0.149}, {"measurement": "Relative organ weight, Heart", "setting": "[3]; empty LNP, 1.50 mg per rat i.m., day 14, organ weight/subject weight×100%, average of male, female rat", "value": 0.308}, {"measurement": "Heart, liver, kidney, spleen, thymus and lymph node coefficients compared with the solvent control group", "setting": "[3]; [8]", "value": "did not show significant difference"}, {"measurement": "Pathological change in the lung", "setting": "[3]; [8]", "value": "proliferation of partial interstitial cells in the lung"}, {"measurement": "Pathological change in the muscle tissue", "setting": "[3]; [8]", "value": "a small amount of inflammatory cell infiltration in the muscle tissue"}, {"measurement": "Pathological changes of heart, liver, kidney, spleen, thymus, and lymph nodes", "setting": "[3]; empty LNP, 1.50 mg per rat, day 14, compared with solvent control", "value": "no pathological changes"}, {"measurement": "PDI", "setting": "[4]; [9]", "value": 0.088}, {"measurement": "Size (nm)", "setting": "[4]; [9]", "value": 147, "unit": "nm"}, {"measurement": "Encapsulated percentage (%)", "setting": "[4]; [10]", "value": 94, "unit": "%"}, {"measurement": "PI", "setting": "[4]; [10]", "value": 0.075}, {"measurement": "Size (nm)", "setting": "[4]; [10]", "value": 86, "unit": "nm"}, {"measurement": "Size (nm)", "setting": "[4]; lipid nanoparticle of the ionizable lipid (ionizable lipid/phospholipid/PEG lipid/structural lipid 50/10/1.5/38.5 %) with mRNA, Table 1", "value": 104.8, "unit": "nm"}, {"measurement": "Encapsulated percentage (%)", "setting": "[4]; [11]", "value": 93.58, "unit": "%"}, {"measurement": "PDI", "setting": "[4]; [11]", "value": 0.0835}, {"measurement": "Total photons number, Leg", "setting": "[5]; 3 h", "value": "3.91E+09"}, {"measurement": "Total photons number, Leg", "setting": "[5]; 6 h", "value": "4.16E+09"}, {"measurement": "Total photons number, Leg", "setting": "[5]; 24 h", "value": "2.90E+08"}]}]}
